Assay results taken from patent US12280046B2, “Melanocortin subtype-2 receptor (MC2R) antagonist for the treatment of disease” (Crinetics Pharmaceuticals, Inc., priority 2021, dated 2025).
pIC50: −log10 of the molar value.

Tests used:
5-HT1B receptor = 5-HT1B receptor (Homo sapiens, UniProt P28222); assay: 5-HT1B functional dose response, agonist and antagonist modes; assay type: biochemical
Source text: The selectivity of Compound 1 for hMC2R over 5-HT1B is >2200-fold.

MC4R = biological target: T1, MC4R (Homo sapiens, UniProt P32245); assay: Commercially available MC4R membrane binding assay; conditions: greater than highest concentration tested
T1 construct: purchased
Description: (§1) The selectivity over other human MCR subtypes was evaluated using commercially available MC1R, MC3R, MC4R, and MCSR membrane binding assays. The half maximal inhibitory concentration in the binding assays (IC50) were determined to be greater than the highest concentration tested, or >10,000 nM, >1000 nM, >10,000 nM and >1000 nM for MC1R, MC3R, MC4R and MCSR, respectively. Compound 1 is >2900-fold selective for MC2R versus the other human MCRs.

[1] = system: corticosterone and adrenal gland hypertrophy; assay: Continuous pump-administration of ACTH(1-24) in male rats, 7 days of daily oral dosing; assay type: in vivo, rat
Description: Exogenous ACTH(1-24) (100 μg/kg/day) was administered to male rats via subcutaneously implanted osmotic pumps. The ability of repeated daily oral administration of Compound 1 to suppress corticosterone over 7 days was evaluated.

MC1R = biological target: T2, MC1R (Homo sapiens, UniProt Q01726); assay: Commercially available MC1R membrane binding assay; conditions: greater than highest concentration tested
T2 construct: purchased
Description: as §1

[2] = system: basal and ACTH-stimulated cortisol; assay: Phase 1 MAD study, basal and ACTH-stimulated cortisol; assay type: in vivo, human
Source text: (§2) This Phase 1, first-in-human, double-blind, randomized, placebo-controlled study will evaluate the safety of Compound 1 in healthy volunteers as well as the relationship between exposure and pharmacodynamic (PD) parameters, including ACTH-stimulated and endogenous cortisol secretion measured in blood, saliva, and urine. Results will be used to inform endpoints and other parameters in future later studies in patients with Cushing's disease (CD) or other diseases of excess adrenocorticotropic hormone (ACTH), including Congenital Adrenal Hyperplasia (CAH) and Ectopic ACTH Syndrome (EAS).
(§3) MAD/Part 2: multiple ascending dose, randomized, placebo-controlled, double-blind; 2 planned and up to 4 total cohorts (n=36). In each cohort, 6 subjects will receive Compound 1, 3 subjects will receive the placebo. The doses will not exceed the doses in the SAD.
Starting on Day −1 until EOS (or ET), fasting pre-dose blood samples are collected <15 minutes prior to dosing for measurement of serum cortisol, A4, 17-OHP, aldosterone, ACTH(1 39), renin, and DHEAS. […] Cosyntropin is then administered (250 mcg in the “high dose” test; 1 mcg in the “low dose” test) to define time 0 of the ACTH-stimulation test. […]
At Screening and on Days 2, 3, 5, 6, 7, 8, 10, 11, and 12, fasting blood samples are collected for measurement of serum cortisol at 4 hours (15 minutes) post-dose (˜1200 hr). On Days in which the ACTH-stimulation test is conducted, this collection will be 120 min post-cosyntropin administration such that post-cosyntropin cortisol collection times are Time 30 minutes (5 minutes), Time 60 minutes (5 minutes), and Time 120 minutes (5 minutes).
A 24-hour blood biomarker profile is measured starting Day −1 until Day 1 pre-dose, Day 1 post-dose until Day 2 pre-dose, Day 4 post-dose until Day 5 pre-dose, and Day 9 post-dose until Day 10 pre-dose.

[3] = Phase 1 MAD study, pharmacokinetics, 40 mg daily over 10 days; assay type: in vivo, human
Source text: as §2, §3
Pharmacokinetic results for Day 1 and Day 10 from the MAD study using a 40 mg daily dose of Compound 1 over 10 days are shown in FIG. 12. Data shown are mean±SEM. […] The mean half-life was ˜30 hours.

[4] = system: serotonin 5-hydroxytryptamine 1B receptor (5-HT1B); assay: SafetyScreen panel: 5-HT1B; assay type: binding; conditions: 10 μM
Description: (§4) Compound 1 was tested at Eurofins Panlabs Discovery Services Taiwan, Ltd. for evaluation in their SafetyScreen™ panel of assays. This included selectivity assays at 87 targets including G-protein coupled receptors, nuclear receptors, other cell surface receptors, ion channels, enzymes, and transporters.

MCSR = biological target: T3, MCSR (Homo sapiens, UniProt P33032); assay: Commercially available MCSR membrane binding assay; conditions: greater than highest concentration tested
T3 construct: purchased
Description: as §1

[5] = system: 87 targets including G-protein coupled receptors, nuclear receptors, other cell surface receptors, ion channels, enzymes, and transporters; assay: Eurofins Panlabs SafetyScreen off-target selectivity panel; conditions: single concentration 10 μM
Description: as §4

[6] = Phase 1 SAD study, pharmacokinetics in healthy volunteers; assay type: in vivo, human
Source text: as §2
SAD/Part 1: ascending single dose, randomized, placebo-controlled, double-blind; 5 planned and up to 8 total cohorts, n=64. In each cohort, 6 subjects will receive Compound 1, 2 subjects will receive the placebo. Doses will escalate from 10 mg in cohort 1 to no more than 250 mg.
Data shown are mean±SEM. All doses n=6. Cohort 4 (n=6, 80 mg) was evaluated in the high dose ACTH-stimulation test, while cohort 5 (n=6, 80 mg) was evaluated in the low dose ACTH-stimulation test.

Chain of 5-HT1B receptor (P28222 whole entry): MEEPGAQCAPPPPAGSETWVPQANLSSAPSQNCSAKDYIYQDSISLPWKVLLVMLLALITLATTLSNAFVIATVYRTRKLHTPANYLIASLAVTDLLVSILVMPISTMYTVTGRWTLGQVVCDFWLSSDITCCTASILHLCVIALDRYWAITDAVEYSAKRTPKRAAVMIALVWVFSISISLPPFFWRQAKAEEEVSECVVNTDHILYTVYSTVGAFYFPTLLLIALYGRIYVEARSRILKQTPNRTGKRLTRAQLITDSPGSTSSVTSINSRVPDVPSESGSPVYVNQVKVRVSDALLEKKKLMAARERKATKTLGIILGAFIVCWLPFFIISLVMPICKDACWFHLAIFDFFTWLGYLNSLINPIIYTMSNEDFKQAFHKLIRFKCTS
T1 sequence (P32245 whole entry): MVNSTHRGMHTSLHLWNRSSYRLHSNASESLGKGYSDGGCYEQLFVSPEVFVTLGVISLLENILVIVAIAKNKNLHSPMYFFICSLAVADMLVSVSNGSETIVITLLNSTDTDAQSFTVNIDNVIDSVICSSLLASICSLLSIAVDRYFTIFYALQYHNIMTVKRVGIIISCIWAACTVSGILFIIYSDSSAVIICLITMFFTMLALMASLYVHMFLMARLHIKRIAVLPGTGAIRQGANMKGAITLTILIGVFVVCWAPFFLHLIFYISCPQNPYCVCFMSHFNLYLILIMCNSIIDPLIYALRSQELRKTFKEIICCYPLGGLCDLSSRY
T2 sequence (Q01726 whole entry): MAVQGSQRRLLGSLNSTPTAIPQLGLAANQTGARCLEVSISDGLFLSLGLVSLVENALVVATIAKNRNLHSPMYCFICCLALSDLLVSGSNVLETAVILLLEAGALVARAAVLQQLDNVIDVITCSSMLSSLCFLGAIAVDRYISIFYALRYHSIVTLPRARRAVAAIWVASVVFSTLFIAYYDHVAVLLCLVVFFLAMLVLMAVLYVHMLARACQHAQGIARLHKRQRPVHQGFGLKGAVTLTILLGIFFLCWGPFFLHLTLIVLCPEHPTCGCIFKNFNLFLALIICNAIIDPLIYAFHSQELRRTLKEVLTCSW
T3 sequence (P33032 whole entry): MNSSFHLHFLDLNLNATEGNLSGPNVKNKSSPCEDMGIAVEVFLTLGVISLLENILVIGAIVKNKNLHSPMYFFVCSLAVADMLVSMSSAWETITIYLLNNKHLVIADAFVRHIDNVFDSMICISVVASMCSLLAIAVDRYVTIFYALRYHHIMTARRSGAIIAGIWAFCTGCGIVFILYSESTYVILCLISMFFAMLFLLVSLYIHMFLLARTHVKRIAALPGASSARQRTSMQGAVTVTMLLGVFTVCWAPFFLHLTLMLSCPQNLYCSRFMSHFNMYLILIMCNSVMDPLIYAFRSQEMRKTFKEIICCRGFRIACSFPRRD

selectivity for hMC2R over 5-HT1B (5-HT1B receptor): > 2200 fold
agonistic activity (5-HT1B receptor; agonist mode, no signal up to 3000 nM): no agonistic activity
pIC50 (5-HT1B receptor; antagonist mode, read-out: antagonistic activity IC50): ~6.12
pIC50 (MC4R): < 5.00
pIC50 (MC1R): < 5.00
accumulation with chronic dosing, higher than projected from SAD study results ([3]; 40 mg daily over 10 days): approximately 2.4 fold
half-life ([3]; human, in vivo, oral, 40 mg daily over 10 days): ~30 h
pIC50 (MCSR): < 6.00
Tmax ([6]; human, in vivo, single oral dose, at efficacious doses): ~1 h
half-life ([6]; human, in vivo, single oral dose, healthy volunteers): ~24 h
Structure (SMILES): CCOc1ccccc1-c1ccc(N2CCN(C(=O)C3(C(F)(F)F)CCC3)C[C@H]2CC)c(C(=O)N[C@@H]2CN3CCC2CC3)n1 [Compound 1, 6-(2-ethoxyphenyl)-3-((R)-2-ethyl-4-(1-(trifluoromethyl)cyclobutane-1-carbonyl)piperazin-1-yl)-N—((S)-quinuclidin-3-yl)picolinamide]
adrenal gland hypertrophy (adrenal gland weight and adrenal cortical area) ([1]; 10 and 30 mg/kg/day vs vehicle): ameliorated adrenal gland hypertrophy
corticosterone ([1]; ≥10 mg/kg/day, 1 hour post-dose on Day 1 and Day 7): dose-dependently suppressed
basal and ACTH-stimulated cortisol secretion ([2]; 4 h post-dose throughout the MAD study): suppressed basal and ACTH-stimulated cortisol secretion
basal unstimulated cortisol ([2]; at 24 hours (before the next dose)): suppression of basal unstimulated cortisol was not observed
basal and ACTH-stimulated cortisol levels ([2]; high dose ACTH-stimulation test, after 10 days of dosing): suppressed basal and ACTH-stimulated cortisol levels
Day 1 PK profile and exposures ([3]; 40 mg, Day 1): comparable to the 40 mg single dose from the SAD study
inhibition/activity [4]: > 70%
activity across the panel [5]: little activity across the panel
oral bioavailability / exposure ([6]; single ascending oral doses): oral bioavailability with dose-proportional exposure
